Read-outs that look alike come from different tables or passages of the source.
Columns and labels:
[1] = system: metastatic renal cell carcinoma (mRCC); assay type: in vivo, human; details: rise in MMP-9 and SCF and fall in SHBG and SAP
advanced solid tumors = details: 21 patients, cited from earlier work
[2] = system: metastatic renal cell carcinoma (mRCC); details: subset with one prior VEGF-TKI; ref AXIS trial; cited from earlier work
[3] = system: metastatic renal cell carcinoma (mRCC); details: subset with one prior VEGF-TKI; ref RECORD-1 trial; cited from earlier work
[4] = cited from earlier work
[5] = system: metastatic renal cell carcinoma (mRCC); assay: Randomized phase II: 6MPFS, PFS, response; assay type: in vivo, human
[6] = Phase I PK of everolimus in whole blood; assay type: in vivo, human; details: 6-hour collection interval, everolimus 10 mg daily
[7] = Randomized phase II: adverse events; assay type: in vivo, human

COc1cc(C(=O)c2c(C)oc3c(OP(=O)([O-])[O-])c(OC)ccc23)cc(OC)c1OC.[Na+].[Na+] [BNC105P]
patients progression free at 6 months, selected population [1]: 60%
objective responses (advanced solid tumors): no objective responses
patients with stable disease (SD) as best response (advanced solid tumors): 4 patients
intravenous dose identified for further studies (advanced solid tumors; days 1 and 8 of a 21-day cycle): 16 mg/m^2

CNC(=O)c1ccccc1Sc1ccc2c(/C=C/c3ccccn3)n[nH]c2c1 [axitinib]
median PFS [2]: 4.8 months

CO[C@H]1C[C@@H]2CC[C@@H](C)[C@@](O)(O2)C(=O)C(=O)N2CCCC[C@H]2C(=O)O[C@H]([C@H](C)C[C@@H]2CC[C@@H](OCCO)[C@H](OC)C2)CC(=O)[C@H](C)/C=C(\C)[C@@H](O)[C@@H](OC)C(=O)[C@H](C)C[C@H](C)/C=C/C=C/C=C/1C [everolimus]
median PFS [3]: 5.4 months
half-life [4]: 26 to 38 h
mean trough concentration at steady state ([4]; patients who received 10 mg everolimus daily): 13.2 ng/mL
6-month progression-free survival (6MPFS) ([5]; phase II): 30.30%
partial responses (number) ([5]; phase II): 2
median PFS amongst patients with liver metastasis ([5]; phase II exploratory analysis): 2.8 months
overall mean concentration [6]: 17.8 ng/mL
Abdominal pain % ([7]; % of arm): 10.4%
Acneiform rash % ([7]; % of arm): 10.4%
Anorexia % ([7]; % of arm): 23.9%
Back pain % ([7]; % of arm): 26.9%
Constipation % ([7]; % of arm): 22.4%
Cough % ([7]; % of arm): 20.9%
Diarrhea % ([7]; % of arm): 23.9%
Dyspnea % ([7]; % of arm): 31.3%
Epistaxis/Respiratory tract hemorrhage % ([7]; % of arm): 11.9%
Extremity pain % ([7]; % of arm): 13.4%
Fatigue % ([7]; % of arm): 44.8%
Fever % ([7]; % of arm): 17.9%
Headache % ([7]; % of arm): 16.4%
Insomnia % ([7]; % of arm): 16.4%
Lower extremity % ([7]; % of arm): 19.4%
Nausea % ([7]; % of arm): 23.9%
Nausea/Vomiting % ([7]; % of arm): 16.4%
Proteinuria % ([7]; % of arm): 14.9%
Pruritus % ([7]; % of arm): 7.5%
Rash % ([7]; % of arm): 22.4%
Skin changes % ([7]; % of arm): 20.9%
Stomatitis % ([7]; % of arm): 28.4%
Taste alteration % ([7]; % of arm): 14.9%
Elevated ALT % ([7]; laboratory, % of arm): 10.4%
Elevated AST % ([7]; laboratory, % of arm): 11.9%
Elevated alkaline phosphatise % ([7]; laboratory, % of arm): 14.9%
Elevated creatinine % ([7]; laboratory, % of arm): 11.9%
Hypercholesterolemia % ([7]; laboratory, % of arm): 28.4%
Hyperglycemia % ([7]; laboratory, % of arm): 25.4%
Hypertriglyceridemia % ([7]; laboratory, % of arm): 31.3%
Hyponatremia % ([7]; laboratory, % of arm): 11.9%
Low hemoglobin % ([7]; laboratory, % of arm): 37.3%
Thrombocytopenia % ([7]; laboratory, % of arm): 14.9%
Elevated ALT Grade 1/2 ([7]; laboratory, number of patients): 7
Elevated ALT Grade 3/4 ([7]; laboratory, number of patients): 0
Elevated ALT Grade 5 ([7]; laboratory, number of patients): 0
Elevated ALT Total ([7]; laboratory, number of patients): 7
Elevated AST Grade 1/2 ([7]; laboratory, number of patients): 8
Elevated AST Grade 3/4 ([7]; laboratory, number of patients): 0
Elevated AST Grade 5 ([7]; laboratory, number of patients): 0
Elevated AST Total ([7]; laboratory, number of patients): 8
Elevated alkaline phosphatise Grade 1/2 ([7]; laboratory, number of patients): 9
Elevated alkaline phosphatise Grade 3/4 ([7]; laboratory, number of patients): 1
Elevated alkaline phosphatise Grade 5 ([7]; laboratory, number of patients): 0
Elevated alkaline phosphatise Total ([7]; laboratory, number of patients): 10
Elevated creatinine Grade 1/2 ([7]; laboratory, number of patients): 5
Elevated creatinine Grade 3/4 ([7]; laboratory, number of patients): 3
Elevated creatinine Grade 5 ([7]; laboratory, number of patients): 0
Elevated creatinine Total ([7]; laboratory, number of patients): 8
Hypercholesterolemia Grade 1/2 ([7]; laboratory, number of patients): 19
Hypercholesterolemia Grade 3/4 ([7]; laboratory, number of patients): 0
Hypercholesterolemia Grade 5 ([7]; laboratory, number of patients): 0
Hypercholesterolemia Total ([7]; laboratory, number of patients): 19
Hyperglycemia Grade 1/2 ([7]; laboratory, number of patients): 12
Hyperglycemia Grade 3/4 ([7]; laboratory, number of patients): 5
Hyperglycemia Grade 5 ([7]; laboratory, number of patients): 0
Hyperglycemia Total ([7]; laboratory, number of patients): 17
Hypertriglyceridemia Grade 1/2 ([7]; laboratory, number of patients): 17
Hypertriglyceridemia Grade 3/4 ([7]; laboratory, number of patients): 4
Hypertriglyceridemia Grade 5 ([7]; laboratory, number of patients): 0
Hypertriglyceridemia Total ([7]; laboratory, number of patients): 21
Hyponatremia Grade 1/2 ([7]; laboratory, number of patients): 5
Hyponatremia Grade 3/4 ([7]; laboratory, number of patients): 3
Hyponatremia Grade 5 ([7]; laboratory, number of patients): 0
Hyponatremia Total ([7]; laboratory, number of patients): 8
Low hemoglobin Grade 1/2 ([7]; laboratory, number of patients): 19
Low hemoglobin Grade 3/4 ([7]; laboratory, number of patients): 6
Low hemoglobin Grade 5 ([7]; laboratory, number of patients): 0
Low hemoglobin Total ([7]; laboratory, number of patients): 25
Thrombocytopenia Grade 1/2 ([7]; laboratory, number of patients): 8
Thrombocytopenia Grade 3/4 ([7]; laboratory, number of patients): 2
Thrombocytopenia Grade 5 ([7]; laboratory, number of patients): 0
Thrombocytopenia Total ([7]; laboratory, number of patients): 10
Abdominal pain Grade 1/2 ([7]; number of patients): 5
Abdominal pain Grade 3/4 ([7]; number of patients): 2
Abdominal pain Grade 5 ([7]; number of patients): 0
Abdominal pain Total ([7]; number of patients): 7
Acneiform rash Grade 1/2 ([7]; number of patients): 7
Acneiform rash Grade 3/4 ([7]; number of patients): 0
Acneiform rash Grade 5 ([7]; number of patients): 0
Acneiform rash Total ([7]; number of patients): 7
Anorexia Grade 1/2 ([7]; number of patients): 15
Anorexia Grade 3/4 ([7]; number of patients): 1
Anorexia Grade 5 ([7]; number of patients): 0
Anorexia Total ([7]; number of patients): 16
Back pain Grade 1/2 ([7]; number of patients): 12
Back pain Grade 3/4 ([7]; number of patients): 6
Back pain Grade 5 ([7]; number of patients): 0
Back pain Total ([7]; number of patients): 18
Constipation Grade 1/2 ([7]; number of patients): 15
Constipation Grade 3/4 ([7]; number of patients): 0
Constipation Grade 5 ([7]; number of patients): 0
Constipation Total ([7]; number of patients): 15
Cough Grade 1/2 ([7]; number of patients): 13
Cough Grade 3/4 ([7]; number of patients): 1
Cough Grade 5 ([7]; number of patients): 0
Cough Total ([7]; number of patients): 14
Diarrhea Grade 1/2 ([7]; number of patients): 16
Diarrhea Grade 3/4 ([7]; number of patients): 0
Diarrhea Grade 5 ([7]; number of patients): 0
Diarrhea Total ([7]; number of patients): 16
Dyspnea Grade 1/2 ([7]; number of patients): 17
Dyspnea Grade 3/4 ([7]; number of patients): 4
Dyspnea Grade 5 ([7]; number of patients): 0
Dyspnea Total ([7]; number of patients): 21
Epistaxis/Respiratory tract hemorrhage Grade 1/2 ([7]; number of patients): 8
Epistaxis/Respiratory tract hemorrhage Grade 3/4 ([7]; number of patients): 0
Epistaxis/Respiratory tract hemorrhage Grade 5 ([7]; number of patients): 0
Epistaxis/Respiratory tract hemorrhage Total ([7]; number of patients): 8
Extremity pain Grade 1/2 ([7]; number of patients): 8
Extremity pain Grade 3/4 ([7]; number of patients): 1
Extremity pain Grade 5 ([7]; number of patients): 0
Extremity pain Total ([7]; number of patients): 9
Fatigue Grade 1/2 ([7]; number of patients): 24
Fatigue Grade 3/4 ([7]; number of patients): 6
Fatigue Grade 5 ([7]; number of patients): 0
Fatigue Total ([7]; number of patients): 30
Fever Grade 1/2 ([7]; number of patients): 10
Fever Grade 3/4 ([7]; number of patients): 2
Fever Grade 5 ([7]; number of patients): 0
Fever Total ([7]; number of patients): 12
Headache Grade 1/2 ([7]; number of patients): 10
Headache Grade 3/4 ([7]; number of patients): 1
Headache Grade 5 ([7]; number of patients): 0
Headache Total ([7]; number of patients): 11
Insomnia Grade 1/2 ([7]; number of patients): 11
Insomnia Grade 3/4 ([7]; number of patients): 0
Insomnia Grade 5 ([7]; number of patients): 0
Insomnia Total ([7]; number of patients): 11
Lower extremity Grade 1/2 ([7]; number of patients): 13
Lower extremity Grade 3/4 ([7]; number of patients): 0
Lower extremity Grade 5 ([7]; number of patients): 0
Lower extremity Total ([7]; number of patients): 13
Nausea Grade 1/2 ([7]; number of patients): 14
Nausea Grade 3/4 ([7]; number of patients): 2
Nausea Grade 5 ([7]; number of patients): 0
Nausea Total ([7]; number of patients): 16
Nausea/Vomiting Grade 1/2 ([7]; number of patients): 9
Nausea/Vomiting Grade 3/4 ([7]; number of patients): 2
Nausea/Vomiting Grade 5 ([7]; number of patients): 0
Nausea/Vomiting Total ([7]; number of patients): 11
Proteinuria Grade 1/2 ([7]; number of patients): 10
Proteinuria Grade 3/4 ([7]; number of patients): 0
Proteinuria Grade 5 ([7]; number of patients): 0
Proteinuria Total ([7]; number of patients): 10
Pruritus Grade 1/2 ([7]; number of patients): 4
Pruritus Grade 3/4 ([7]; number of patients): 1
Pruritus Grade 5 ([7]; number of patients): 0
Pruritus Total ([7]; number of patients): 5
Rash Grade 1/2 ([7]; number of patients): 15
Rash Grade 3/4 ([7]; number of patients): 0
Rash Grade 5 ([7]; number of patients): 0
Rash Total ([7]; number of patients): 15
Skin changes Grade 1/2 ([7]; number of patients): 11
Skin changes Grade 3/4 ([7]; number of patients): 3
Skin changes Grade 5 ([7]; number of patients): 0
Skin changes Total ([7]; number of patients): 14
Stomatitis Grade 1/2 ([7]; number of patients): 13
Stomatitis Grade 3/4 ([7]; number of patients): 6
Stomatitis Grade 5 ([7]; number of patients): 0
Stomatitis Total ([7]; number of patients): 19
Taste alteration Grade 1/2 ([7]; number of patients): 10
Taste alteration Grade 3/4 ([7]; number of patients): 0
Taste alteration Grade 5 ([7]; number of patients): 0
Taste alteration Total ([7]; number of patients): 10

— publication PMC4526387 (Clinical cancer research : an official journal of the …, 2015)
